Source: patent publication US10821079B2, “PKC activators and combinations thereof” (Cognitive Research Enterprises, Inc., priority 2011, dated 2020)

Assays:
PKC-ε = molecular target: T1, PKC-ε (Homo sapiens, UniProt Q02156); assay: Activation of purified PKC isozymes, radiometric: PKC-ε; format: biochemical
T1 sequence (Q02156 1-737): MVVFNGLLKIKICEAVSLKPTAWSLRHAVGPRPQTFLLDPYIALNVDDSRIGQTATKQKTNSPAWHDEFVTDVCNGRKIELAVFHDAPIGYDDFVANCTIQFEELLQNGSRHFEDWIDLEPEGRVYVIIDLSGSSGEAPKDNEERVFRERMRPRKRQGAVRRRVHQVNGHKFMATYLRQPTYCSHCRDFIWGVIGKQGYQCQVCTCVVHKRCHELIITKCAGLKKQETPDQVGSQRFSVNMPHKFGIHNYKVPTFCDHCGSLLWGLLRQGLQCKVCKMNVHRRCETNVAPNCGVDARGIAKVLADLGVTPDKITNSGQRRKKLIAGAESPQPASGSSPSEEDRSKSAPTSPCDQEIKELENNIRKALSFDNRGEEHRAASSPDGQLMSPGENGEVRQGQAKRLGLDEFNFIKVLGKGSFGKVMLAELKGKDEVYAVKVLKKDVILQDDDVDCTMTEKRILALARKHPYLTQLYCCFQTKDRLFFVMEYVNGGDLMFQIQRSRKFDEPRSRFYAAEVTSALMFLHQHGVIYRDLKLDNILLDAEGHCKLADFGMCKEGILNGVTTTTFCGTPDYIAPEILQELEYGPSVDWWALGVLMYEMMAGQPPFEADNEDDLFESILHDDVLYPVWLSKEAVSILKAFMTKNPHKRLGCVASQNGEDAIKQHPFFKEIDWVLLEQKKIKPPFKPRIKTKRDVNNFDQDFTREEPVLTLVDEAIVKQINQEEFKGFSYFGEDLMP
Description: (§1) To measure PKC, 10 μl of cell homogenate or purified PKC isoform was incubated for 15 min at 37° C. in the presence of 10 μM histones, 4.89 mM CaCl2, 1.2 μg/μl phosphatidyl-L-serine, 0.18 μg/μl 1,2-dioctanoyl-sn-glycerol, 10 mM MgCl2, 20 mM HEPES (pH 7.4), 0.8 mM EDTA, 4 mM EGTA, 4% glycerol, 8 μg/ml aprotinin, 8 μg/ml leupeptin, and 2 mM benzamidine. [γ32P]ATP (0.5 μCi) was added and 32P-phosphoprotein formation was measured by adsorption onto phosphocellulose as described previously. See Nelson et al., J. Neurochemistry, 1995, 65: 2350-2357.
(§2) PKC activity of each compound was measured in the absence of diacylglycerol and phosphatidylserine and PKC-δ and PKC-ε were measured in the absence of added EGTA and CaCl2, as described by Kanno et al., J. Lipid Res., 2006, 47: 1146-1156. Low concentrations of Ca^2+ were needed because high Ca^2+ can interact with the PKC phosphatidylserine binding site and prevents activation. […] To determine their PKC isoform specificity, the compounds were pre-incubated with purified isoforms of PKC for five minutes and the PKC activity was measured radiometrically.
(§3) The activation and PKC isozyme specificity of DCPLA-ethyl ester was measured following the procedures in Example 1(B) and (C), except that 9 ng of the purified isozyme was used and it was pre-incubated for 5 minutes at room temperature (FIG. 3). PKC-ε activation by DCPLA-tert-butyl ester and DCPLA-retinyl ester was measured in the same manner as DCPLA-ethyl ester (FIG. 3).
The EC50 values, PKC specificity, and activation for a select number of DCPLA esters was determined (see Table 1). EC50 values were determined by measuring the lowest concentration that activates by 50% of maximum activation. […] The specificity and activation of PKC by the various esters of DCPLA were calculated from the measurements of activation of PKC isozymes.

PKCα = PKCα (Homo sapiens, UniProt P17252); assay: Activation of purified PKC isozymes, radiometric: PKC-α; format: biochemical
Description: To measure PKC activity, 10 μg of protein from either cytosol or membrane was incubated for 15 min at 37° C. in the presence of 10 μM histones, 4.89 mM CaCl2, 1.2 μg/μl phosphatidyl-L-serine, 0.18 μg/μl 1,2-dioctanoyl-sn-glycerol, 10 mM MgCl2, 20 mM HEPES (pH 7.4), 0.8 mM EDTA, 4 mM EGTA, 4% glycerol, 8 μg/ml aprotinin, 8 μg/ml leupeptin, 2 mM benzamidine, and 0.5 μCi of [γ-^32P]ATP. [^32P]Phosphoprotein formation was measured by adsorption onto phosphocellulose as described previously. See Nelson et al. (2009) J Biol Chem 284, 34514-34521. For measurements of activation by RA, PKC activity was measured in the absence of diacylglycerol (DAG) and phosphatidylserine, as described by Nelson et al. (2009) J Biol Chem 284, 34514-34521. PKC-δ and PKC-ε were measured in the absence of added EGTA and CaCl^2, as described by Kanno et al. (2006) J Lipid Res 47, 1146-1156. The enzyme was provided as a purified isozyme for in vitro experiments.
as §1, §2, §3

| SMILES | PKC-ε activation at peak (PKC-ε) | concentration range activating PKC-ε by more than 50% (PKC-ε) | Specificity ε/α (PKC-ε; Activation of PKC-ε ÷ activation or inhibition of PKCα at 3 × EC50) | effect on PKC-α (in words) (PKCα) | PKC-ε activation (in words) (PKC-ε) |
| --- | --- | --- | --- | --- | --- |
| CCCCCC1CC1CC1CC1CCCCCCCC(=O)OC (stereo not drawn) [DCPLA-ME, methyl 8-(2-((2-pentylcyclopropyl)methyl)cyclopropyl)octanoate] | up to 190 % of control | 0.01 to 10 µM | 12.1 | did not have a major effect | – |
| CC1=C(/C=C/C(C)=C/C=C/C(C)=C/C(=O)O)C(C)(C)CCC1 [RA, All-trans retinoic acid] | – | – | – | not activated | not activated |
